Test results taken from PubChem BioAssay (NCI).
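Abbreviation: GI50, concentration required for 50% inhibition of growth. The concentration for full growth arrest is given as TGI.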

Tests used:
Assay in all cases: growth of human tumour cells (NCI), 384-well format
[1] = test system: OVCAR-3 ovarian
[2] = test system: RXF 393 renal
[3] = test system: SK-OV-3 ovarian
[4] = test system: SF-539 CNS
[5] = test system: TK-10 renal
[6] = test system: SR leukemia
[7] = test system: MCF7 breast
[8] = test system: MDA-MB-435 melanoma
[9] = test system: NCI-H322M lung
[10] = test system: OVCAR-4 ovarian
[11] = test system: HOP-92 NSCLC
[12] = test system: UACC-257 melanoma
[13] = test system: UACC-62 melanoma
[14] = test system: NCI-H460 NSCLC
[15] = test system: T-47D breast
[16] = test system: HL-60(TB) leukemia
[17] = test system: HCT-15 colon
[18] = test system: MDA-MB-231 breast
[19] = test system: SW-620 colon
[20] = test system: MALME-3M melanoma
[21] = test system: OVCAR-5 ovarian
[22] = test system: SF-295 CNS
[23] = test system: U251 glioblastoma
[24] = test system: 786-0 renal
[25] = test system: LOX IMVI melanoma
[26] = test system: SN12C renal
[27] = test system: NCI-H522 lung
[28] = test system: CCRF-CEM leukemia
[29] = test system: MOLT-4 leukemia
[30] = test system: PC-3 prostate
[31] = test system: IGROV1 ovarian
[32] = test system: NCI-H226 lung
[33] = test system: M14 melanoma
[34] = test system: K-562 leukemia
[35] = test system: SK-MEL-5 melanoma
[36] = test system: SK-MEL-28 melanoma
[37] = test system: A549 NSCLC
[38] = test system: DU-145 prostate
[39] = test system: RPMI-8226 leukemia
[40] = test system: A498 renal
[41] = test system: SK-MEL-2 melanoma
[42] = test system: COLO 205 colon
[43] = test system: MDA-MB-468 breast
[44] = test system: NCI/ADR-RES ovarian
[45] = test system: NCI-H23 lung
[46] = test system: BT-549 breast
[47] = test system: HOP-62 NSCLC
[48] = test system: HT29 colon
[49] = test system: ACHN renal
[50] = test system: OVCAR-8 ovarian
[51] = test system: KM12 colon
[52] = test system: CAKI-1 renal
[53] = test system: UO-31 renal
[54] = test system: SNB-19 CNS
[55] = test system: SF-268 CNS
[56] = test system: HCT-116 colon
[57] = test system: SNB-75 CNS
[58] = test system: HCC-2998 colon
[59] = test system: EKVX NSCLC
[60] = test system: HS 578T breast

Structure (SMILES): CN(C(=O)c1ccc(C(F)(F)F)cc1)c1ccc(Oc2ccc3c(c2)cc(C(=O)N2CCN(Cc4ccc(OC(F)F)cc4)CC2)n3C)nc1
- GI50 [1]: 3.02 µM
- TGI [1]: > 100 µM
- GI50 [2]: < 0.01 µM
- TGI [2]: < 0.01 µM
- GI50 [3]: < 0.01 µM
- TGI [3]: > 100 µM
- GI50 [4]: > 100 µM
- TGI [4]: > 100 µM
- GI50 [5]: 2.97 µM
- TGI [5]: > 100 µM
- GI50 [6]: < 0.01 µM
- TGI [6]: < 0.01 µM
- GI50 [7]: 0.136 µM
- TGI [7]: > 100 µM
- GI50 [8]: > 100 µM
- TGI [8]: > 100 µM
- GI50 [9]: < 0.01 µM
- TGI [9]: > 100 µM
- GI50 [10]: < 0.01 µM
- TGI [10]: > 100 µM
- GI50 [11]: 0.864 µM
- TGI [11]: > 100 µM
- GI50 [12]: < 0.01 µM
- TGI [12]: 2.84 µM
- GI50 [13]: > 100 µM
- TGI [13]: > 100 µM
- GI50 [14]: < 0.01 µM
- TGI [14]: < 0.01 µM
- GI50 [15]: < 0.01 µM
- TGI [15]: 6.89 µM
- GI50 [16]: 1.01 µM
- TGI [16]: 2.56 µM
- GI50 [17]: 6.41 µM
- TGI [17]: > 100 µM
- GI50 [18]: < 0.01 µM
- TGI [18]: > 100 µM
- GI50 [19]: 8.11 µM
- TGI [19]: > 100 µM
- GI50 [20]: > 100 µM
- TGI [20]: > 100 µM
- GI50 [21]: > 100 µM
- TGI [21]: > 100 µM
- GI50 [22]: 0.0107 µM
- TGI [22]: > 100 µM
- GI50 [23]: < 0.01 µM
- TGI [23]: > 100 µM
- GI50 [24]: > 100 µM
- TGI [24]: > 100 µM
- GI50 [25]: < 0.01 µM
- TGI [25]: > 100 µM
- GI50 [26]: > 100 µM
- TGI [26]: > 100 µM
- GI50 [27]: < 0.01 µM
- TGI [27]: > 100 µM
- GI50 [28]: < 0.01 µM
- TGI [28]: 1.04 µM
- GI50 [29]: < 0.01 µM
- TGI [29]: 1.42 µM
- GI50 [30]: 3.48 µM
- TGI [30]: > 100 µM
- GI50 [31]: 0.0201 µM
- TGI [31]: > 100 µM
- GI50 [32]: 0.431 µM
- TGI [32]: > 100 µM
- GI50 [33]: 6.53 µM
- TGI [33]: > 100 µM
- GI50 [34]: < 0.01 µM
- TGI [34]: > 100 µM
- GI50 [35]: < 0.01 µM
- TGI [35]: 0.95 µM
- GI50 [36]: > 100 µM
- TGI [36]: > 100 µM
- GI50 [37]: < 0.01 µM
- TGI [37]: > 100 µM
- GI50 [38]: > 100 µM
- TGI [38]: > 100 µM
- GI50 [39]: < 0.01 µM
- TGI [39]: < 0.01 µM
- GI50 [40]: < 0.01 µM
- TGI [40]: 0.0209 µM
- GI50 [41]: > 100 µM
- TGI [41]: > 100 µM
- GI50 [42]: > 100 µM
- TGI [42]: > 100 µM
- GI50 [43]: < 0.01 µM
- TGI [43]: < 0.01 µM
- GI50 [44]: < 0.01 µM
- TGI [44]: 0.0671 µM
- GI50 [45]: < 0.01 µM
- TGI [45]: < 0.01 µM
- GI50 [46]: 1.27 µM
- TGI [46]: > 100 µM
- GI50 [47]: < 0.01 µM
- TGI [47]: > 100 µM
- GI50 [48]: > 100 µM
- TGI [48]: > 100 µM
- GI50 [49]: > 100 µM
- TGI [49]: > 100 µM
- GI50 [50]: < 0.01 µM
- TGI [50]: > 100 µM
- GI50 [51]: > 100 µM
- TGI [51]: > 100 µM
- GI50 [52]: > 100 µM
- TGI [52]: > 100 µM
- GI50 [53]: > 100 µM
- TGI [53]: > 100 µM

Structure (SMILES): CC[C@H](Nc1ncnc2nc[nH]c12)c1oc2ccccc2c(=O)c1-c1cccc(F)c1
- GI50 [1]: 18.2 µM
- TGI [1]: 40.8 µM
- GI50 [2]: 21.1 µM
- TGI [2]: > 69.5 µM
- GI50 [3]: 24.5 µM
- TGI [3]: 63.8 µM
- GI50 [4]: 45.9 µM
- TGI [4]: > 100 µM
- GI50 [5]: 29.8 µM
- TGI [5]: > 95.2 µM
- GI50 [6]: 12.4 µM
- TGI [6]: 25.2 µM
- GI50 [54]: 37.1 µM
- TGI [54]: > 100 µM
- GI50 [7]: 29.6 µM
- TGI [7]: > 87.3 µM
- GI50 [8]: 24.2 µM
- TGI [8]: 56.5 µM
- GI50 [9]: 90.5 µM
- TGI [9]: > 100 µM
- GI50 [10]: 17.9 µM
- TGI [10]: 54.2 µM
- GI50 [11]: 14.6 µM
- TGI [11]: 39.1 µM
- GI50 [12]: 33 µM
- TGI [12]: > 87.9 µM
- GI50 [55]: 29.8 µM
- TGI [55]: > 89.4 µM
- GI50 [13]: 16.3 µM
- TGI [13]: 36.8 µM
- GI50 [14]: 34.7 µM
- TGI [14]: > 100 µM
- GI50 [15]: 24.4 µM
- TGI [15]: > 86.2 µM
- GI50 [16]: 21.8 µM
- TGI [16]: 36.6 µM
- GI50 [17]: 30.7 µM
- TGI [17]: 99.1 µM
- GI50 [18]: 26.2 µM
- TGI [18]: > 100 µM
- GI50 [19]: 48.7 µM
- TGI [19]: > 81.2 µM
- GI50 [20]: 23.6 µM
- TGI [20]: 62.8 µM
- GI50 [56]: 36.9 µM
- TGI [56]: > 100 µM
- GI50 [21]: 39.9 µM
- TGI [21]: > 100 µM
- GI50 [22]: 20.7 µM
- TGI [22]: > 74.6 µM
- GI50 [23]: 31 µM
- TGI [23]: > 100 µM
- GI50 [24]: 27.2 µM
- TGI [24]: > 95 µM
- GI50 [25]: 26.3 µM
- TGI [25]: 82.1 µM
- GI50 [26]: 30.5 µM
- TGI [26]: 98.9 µM
- GI50 [27]: 20.6 µM
- TGI [27]: 47.7 µM
- GI50 [28]: 16.8 µM
- TGI [28]: 31 µM
- GI50 [29]: 15.8 µM
- TGI [29]: 29.6 µM
- GI50 [30]: 18.5 µM
- TGI [30]: 52.6 µM
- GI50 [31]: 24.1 µM
- TGI [31]: 59.2 µM
- GI50 [57]: 23.2 µM
- TGI [57]: 60.7 µM
- GI50 [32]: 23.8 µM
- TGI [32]: 83 µM
- GI50 [33]: 37.7 µM
- TGI [33]: > 100 µM
- GI50 [34]: 26.5 µM
- TGI [34]: > 96.6 µM
- GI50 [35]: 17.9 µM
- TGI [35]: 39.7 µM
- GI50 [36]: 27.7 µM
- TGI [36]: > 86.1 µM
- GI50 [37]: 27.9 µM
- TGI [37]: > 100 µM
- GI50 [38]: 29.6 µM
- TGI [38]: > 100 µM
- GI50 [39]: 8.38 µM
- TGI [39]: 20.5 µM
- GI50 [40]: 27.8 µM
- TGI [40]: > 100 µM
- GI50 [41]: 13.7 µM
- TGI [41]: 30.1 µM
- GI50 [42]: 42.4 µM
- TGI [42]: > 100 µM
- GI50 [43]: 9.6 µM
- TGI [43]: 27.2 µM
- GI50 [44]: 24 µM
- TGI [44]: 60.4 µM
- GI50 [45]: 23.9 µM
- TGI [45]: 78.3 µM
- GI50 [46]: 15.5 µM
- TGI [46]: 39.5 µM
- GI50 [58]: 32.6 µM
- TGI [58]: 80 µM
- GI50 [47]: 30.1 µM
- TGI [47]: > 100 µM
- GI50 [48]: 32.3 µM
- TGI [48]: > 100 µM
- GI50 [49]: 23.2 µM
- TGI [49]: 77.5 µM
- GI50 [50]: 32.6 µM
- TGI [50]: > 100 µM
- GI50 [59]: 23.8 µM
- TGI [59]: 70.7 µM
- GI50 [51]: 36.8 µM
- TGI [51]: > 100 µM
- GI50 [60]: 15.1 µM
- TGI [60]: 37.2 µM
- GI50 [52]: 28.6 µM
- TGI [52]: > 100 µM
- GI50 [53]: 3.16 µM
- TGI [53]: > 100 µM
